Several values for one entry are separate records, joined by “and”; a condition that tells them apart may be missing. Equal entries are not always repeated. *1 amine or outer side, *2 acyl side, *3 side chain or, on linkers, in order; H or OH if unused. Where no end group is shown, it is not given here. [ ]: non-standard residue; d: D form. Benzoyl(5-NH,2-NO2) = O=C(c1cc(N[*:1])ccc1[N+](=O)[O-])[*:2]; 2Abz = Nc1ccccc1C(=O)O
What was measured:
Format in all cases: biochemical, human
[1] = tested on: proteolytic enzymes in urine from a subject suffering from biliary tract cancer; assay: Absorbance measurement of substrate hydrolysis in urine from subjects with biliary tract cancer; settings: for absorbance: 405 nm, pH 8.0, 37° C., 60 minutes, triplicate
Experimental: (§1) The activity of the novel compounds according to the invention was studied in a group of 20 subjects diagnosed with biliary tract cancer using the representative compound according to the invention. […] The remaining compounds according to the invention are characterized by the analogous mechanism of action. For this purpose, the representative compound according to the invention, ABZ^1-Glu^2-Arg^3-Arg^4-Ala^5-NH2, was dissolved in dimethyl sulfoxide (at a concentration of 0.5 mg/mL) and then 50 L of the solution was mixed with 120 L of a buffer (200 mM Tris-HCl, pH 8.0) and 80 L of urine from a subject suffering from biliary tract cancer. The measurement was performed on a 96-well plate designed for measuring absorbance and each sample was analysed in triplicate at the temperature of 37° C. The duration of the measurement was 60 minutes. During the measurement, the wavelength characteristic for the chromophore (ANB-NH2) being released was monitored at the wavelength 405 nm (range 380-430 nm).
The observed magnitude of increase in absorbance in time is different for each of the examined samples.
Such a result may be due to the difference in the activity as well as the amount of enzymes responsible for the enzymatic cleavage (proteolysis). […] The result indicates the absence of proteolytic enzymes specific/characteristic of biliary tract cancer.

[2] = tested on: urine samples taken from healthy persons; assay: Absorbance measurement of substrate hydrolysis in urine from healthy subjects; settings: for absorbance: 405 nm, pH 8.0, 37° C., 60 minutes, triplicate
[3] = tested on: urine samples from subjects with biliary tract cancer or another neoplastic disease; assay: Selectivity of substrate cleavage in urine of patients with different cancer types; settings: urine of patients with testicle, large intestine, kidney, prostate, pancreas, liver, lung, ovarian and rectum cancer
Text: The samples tested for each type of cancer were derived from 20 different patients for each of the tested cancers. The results are mean values for given cancer types.
as §1
Furthermore, the dependence of the cleavage selectivity of the substrate, i.e. the compound according to the invention, on the cancer type being examined, was studied. […]

Substance: ABZ-Glu-Arg-Arg-Ala-ANB-NH2 ([2Abz]ERRA-{Benzoyl(5-NH,2-NO2)-NH2})
- cleavage of the substrate ([1]; all urine samples 1-13 from persons suffering from biliary tract cancer): underwent cleavage
- absorbance ([1]; urine sample 1, biliary tract cancer): 0.004 and 0.002 and 0.003
- absorbance ([1]; urine sample 2, biliary tract cancer): 0.0068 and 0.0034 and 0.0053
- absorbance ([1]; urine sample 3, biliary tract cancer): 0.0035 and 0.005 and 0.0048
- absorbance ([1]; urine sample 4, biliary tract cancer): 0.004 and 0.0067 and 0.0051
- absorbance ([1]; urine sample 6, biliary tract cancer): 0.002 and 0.0021 and 0.0026
- absorbance ([1]; urine sample 7, biliary tract cancer): 0.084 and 0.092 and 0.087
- absorbance ([1]; urine sample 8, biliary tract cancer): 0.0746 and 0.0948 and 0.084
- absorbance ([1]; urine sample 9, biliary tract cancer): 0.053 and 0.0458 and 0.0497
- absorbance ([1]; urine sample 10, biliary tract cancer): 0.0436 and 0.035 and 0.041
- absorbance ([1]; urine sample 11, biliary tract cancer): 0.0051 and 0.0041 and 0.0048
- absorbance ([1]; urine sample 12, biliary tract cancer): 0.0025 and 0.0028 and 0.0032
- absorbance ([1]; urine sample 13, biliary tract cancer): 0.0046 and 0.005 and 0.0047
- absorbance ([2]; urine sample 14, healthy subject): 0.000000
- absorbance ([2]; urine sample 15, healthy subject): 0.000000
- absorbance ([2]; urine sample 16, healthy subject): 0.000000
- absorbance ([2]; urine sample 17, healthy subject): 0.000000
- absorbance ([2]; urine sample 18, healthy subject): 0.000000
- absorbance ([2]; urine sample 19, healthy subject): 0.000000
- absorbance ([2]; urine sample 20, healthy subject): 0.000000
- absorbance ([2]; urine sample 21, healthy subject): 0.000000
- absorbance ([2]; urine sample 22, healthy subject): 0.000000
- absorbance ([2]; urine sample 23, healthy subject): 0.000000
- increase in absorbance / hydrolysis ([2]; urine samples 14 to 23 from healthy persons): does not lead to an increase in absorbance
- cleavage of the substrate / increase in absorbance [3]: is not subject to cleavage

From patent US20260226100A1, “Compound - Diagnostic Marker For Biliary Tract Cancer, Method For Detecting Enzymatic Activity, Method For Diagnosis Of Biliary Tract Cancer, Kit Comprising The Compound, Uses Of The Compound And Method For The Treatment Of Biliary Tract Cancer” (Urteste S.A., priority 2023, published 2026)
